molecular target: T1, nonphosphorylated Abl kinase (Homo sapiens, UniProt P00519); assay: Abl kinase assay (continuous spectrophotometric, pyruvate kinase/lactate dehydrogenase coupled); assay type: biochemical; details: not given
T1 construct: purchased deCode Abl-2
Procedure: A continuous spectrophotometric kinase assay is used, wherein the production of adenosine diphosphate is coupled to the oxidation of NADH and measured as a reduction in absorbance at 340 nm. For details see: Barker, S. C. et al, Biochemistry (1995) 34:14843; and Schindler, T. et al, Science (2000) 289:1938.
The reaction mixture (200 μl) contained Abl kinase (3.7 nM. Abl-2 from deCode), peptide substrate ([…], 0.5 mM), ATP (0.5 mM), MgCl2 (5 mM), pyruvate kinase (16 units), lactate dehydrogenase (26 units), phosphoenol pyruvate (1 mM), and NADH (0.28 mM) in 100 mM Tris buffer, pH 7.5. The reaction was initiated by adding ATP. The absorption at 340 nm was monitored continuously for 3 to 4 hours at 30° C. on Polarstar Optima plate reader (BMG). Under these conditions, a turn over number (kcat) of 1.4 s^−1 was obtained for the preparation of Abl kinase, which is similar to that (1.7 s^−1) reported for the nonphosphorylated enzyme (Brasher and Van Etten, JBC (2000) 275, 35631-35637). No autophosphorylation of Abl was observed under these conditions since the rate is constant throughout the entire reaction time and presumably because the concentration of the enzyme used is below the critical level (˜10 nM) needed for the autophosphorylation (Brasher and Van Etten, JBC (2000) 275, 35631-35637).
Percentage of inhibition in the presence of an inhibitor was obtained by comparison of reaction rate (or slope) with that of a control. IC50 value was calculated from a series of % inhibition values determined at a range of concentrations of the inhibitor using Prism.

T1 sequence (P00519 whole entry): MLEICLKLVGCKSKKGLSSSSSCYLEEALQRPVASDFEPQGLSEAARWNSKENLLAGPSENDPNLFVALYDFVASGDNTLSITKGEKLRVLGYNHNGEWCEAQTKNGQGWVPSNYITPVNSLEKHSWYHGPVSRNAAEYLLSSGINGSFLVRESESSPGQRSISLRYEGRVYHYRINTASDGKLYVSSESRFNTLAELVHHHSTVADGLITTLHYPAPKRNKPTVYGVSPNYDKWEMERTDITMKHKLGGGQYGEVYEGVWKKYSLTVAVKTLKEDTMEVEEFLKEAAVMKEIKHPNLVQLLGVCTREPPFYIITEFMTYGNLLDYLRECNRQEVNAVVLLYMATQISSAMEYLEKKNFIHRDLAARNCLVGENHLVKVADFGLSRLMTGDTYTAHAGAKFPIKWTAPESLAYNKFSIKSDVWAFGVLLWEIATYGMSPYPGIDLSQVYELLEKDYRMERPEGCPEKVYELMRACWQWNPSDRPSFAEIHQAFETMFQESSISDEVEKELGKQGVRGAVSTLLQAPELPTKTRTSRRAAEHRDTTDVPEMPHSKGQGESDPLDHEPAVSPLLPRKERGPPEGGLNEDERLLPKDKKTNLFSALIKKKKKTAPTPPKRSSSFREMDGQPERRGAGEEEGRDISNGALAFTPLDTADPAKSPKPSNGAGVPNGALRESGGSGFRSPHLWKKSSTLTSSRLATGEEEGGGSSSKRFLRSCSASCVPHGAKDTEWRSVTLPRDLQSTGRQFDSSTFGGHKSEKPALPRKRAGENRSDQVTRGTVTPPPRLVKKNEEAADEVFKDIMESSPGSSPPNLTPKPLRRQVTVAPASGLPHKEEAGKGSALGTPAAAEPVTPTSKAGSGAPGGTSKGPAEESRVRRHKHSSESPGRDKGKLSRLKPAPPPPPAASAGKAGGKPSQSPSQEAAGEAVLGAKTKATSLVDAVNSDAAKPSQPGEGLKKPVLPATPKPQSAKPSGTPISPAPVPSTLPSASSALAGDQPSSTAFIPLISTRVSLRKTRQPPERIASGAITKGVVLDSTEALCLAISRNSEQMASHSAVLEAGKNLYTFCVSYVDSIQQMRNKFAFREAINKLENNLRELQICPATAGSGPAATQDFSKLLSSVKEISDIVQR

Row | Structure (SMILES) | IC50
1 | Cc1ccc(NC(=O)c2ccc(C(=O)N3C(=O)OC[C@@H]3c3ccccc3)cc2)cc1Nc1nccc(-c2cccnc2)n1 [Example 19, L-4-(2-oxo-4-phenyl-oxazolidine-3-carbonyl)-N-[4-methyl-3-(4-pyridin-3-yl-pyrimidin-2-ylamino)-phenyl]benzamide] | 4 µM
2 | Cc1ccc(NC(=O)c2ccc(C(=O)N3C(=O)OC[C@H]3c3ccccc3)cc2)cc1Nc1nccc(-c2cccnc2)n1 [Example 18, D-4-(2-oxo-4-phenyl-oxazolidine-3-carbonyl)-N-[4-methyl-3-(4-pyridin-3-yl-pyrimidin-2-ylamino)-phenyl]benzamide] | 3 µM

same assay, conditions: read-out: % Inhi @ 10 uM

Row | Structure (SMILES) | inhibition at 10 µM
3 | Cc1ccc(NC(=O)c2ccc(CN3CC(=O)NS3(=O)=O)cc2)cc1Nc1nccc(-c2ccccc2)n1 [Example 23] | 10%
4 | Cc1ccc(NC(=O)c2ccc(CNS(=O)(=O)NC(=O)N3CCCC3)cc2)cc1Nc1ncccn1 [Example 2] | 9%
5 | Cc1ccc(NC(=O)c2ccc(C(=O)N3C(=O)OC[C@H]3c3ccccc3)cc2)cc1Nc1nccc(-c2ccccc2)n1 [Example 16, D-4-(2-oxo-4-phenyl-oxazolidine-3-carbonyl)-N-(4-methyl-3-(4-phenylpyrimidin-2-ylamino)phenyl)benzamide] | 9%
6 | Cc1ccc(NC(=O)c2ccc(CNC(=O)NS(=O)(=O)N3CCCC3)cc2)cc1Nc1ncccn1 [Example 4] | 24%
7 | Cc1ccc(NC(=O)c2ccc(Cn3sc(=O)n(-c4ccccc4)c3=O)cc2)cc1Nc1nccc(-c2ccccc2)n1 [Example 9, N-(3-(4-phenylpyrimidin-2-ylamino)-4-methylphenyl)-4-((3,5-dioxo-4-phenyl-1,2,4-thiadiazolidin-2-yl)methyl)benzamide] | 42%
8 | Cc1ccc(NC(=O)c2ccc(CN3CCS(=O)(=O)CC3)cc2)cc1Nc1ncccn1 [Example 13, 4-(((4,4-dioxothiomorpholinomethyl)1)methyl)-N-(4-methyl-3-(pyrimidin-2-ylamino)phenyl)benzamide] | 31%
9 | Cc1ccc(NC(=O)c2ccc(C(=O)N3C(=O)OC[C@@H]3c3ccccc3)cc2)cc1Nc1nccc(-c2ccccc2)n1 [Example 17, L-4-(2-oxo-4-phenyl-oxazolidine-3-carbonyl)-N-(4-methyl-3-(4-phenylpyrimidin-2-ylamino)phenyl)benzamide] | 18%
10 | CNC(=O)CN(CC(=O)NC)C(=O)c1ccc(C(=O)Nc2ccc(C)c(Nc3ncccn3)c2)cc1 [Example 7, N^1,N^1-bis((methylcarbamoyl)methyl)-N^4-(4-methyl-3-(pyrimidin-2-ylamino)phenyl)terephthalamide] | 9%
11 | Cc1ccc(NC(=O)c2ccc(CN3C(=O)CNS3(=O)=O)cc2)cc1Nc1nccc(-c2ccccc2)n1 [Example 12, N-[4-Methyl-3-(4-phenyl-pyrimidin-2-ylamino)-phenyl]-4-(1,1,3-trioxo-[1,2,5]thiadiazolidin-2-ylmethyl)-benzamide] | 52%
12 | Cc1ccc(NC(=O)c2ccc(CNC(=O)NS(=O)(=O)N3CCCC3)cc2)cc1Nc1nccc(-c2ccccc2)n1 [Example 3] | 15%
13 | Cc1ccc(NC(=O)c2ccc(C(=O)N3C(=O)OC[C@@H]3c3ccccc3)cc2)cc1Nc1nccc(-c2cccnc2)n1 [Example 19, L-4-(2-oxo-4-phenyl-oxazolidine-3-carbonyl)-N-[4-methyl-3-(4-pyridin-3-yl-pyrimidin-2-ylamino)-phenyl]benzamide] | 75%
14 | CNC(=O)CN(CC(=O)NC)C(=O)c1ccc(C(=O)Nc2ccc(C)c(Nc3nccc(-c4ccccc4)n3)c2)cc1 [Example 8, N^1,N^1-bis((methylcarbamoyl)methyl)-N^4-(3-(4-phenylpyrimidin-2-ylamino)4-methylphenyl)terephthalamide] | 20%
15 | Cc1ccc(NC(=O)c2ccc(CN3CCS(=O)(=O)CC3)cc2)cc1Nc1nccc(N2CCOCC2)n1 [Example 15, 4-(((4,4-dioxothiomorpholinomethyl)1)methyl)-N-(4-methyl-3-(4-morpholinopyrimidin-2-ylamino)phenyl)benzamide] | 7%
16 | Cc1ccc(NC(=O)c2ccc(C(=O)N3C(=O)OC[C@H]3c3ccccc3)cc2)cc1Nc1nccc(-c2cccnc2)n1 [Example 18, D-4-(2-oxo-4-phenyl-oxazolidine-3-carbonyl)-N-[4-methyl-3-(4-pyridin-3-yl-pyrimidin-2-ylamino)-phenyl]benzamide] | 70%
17 | Cc1ccc(NC(=O)c2ccc(CN3CC(=O)N(C)C3=O)cc2)cc1Nc1ncccn1 [Example 5, 4-((3-methyl-2,4-dioxoimidazolidin-1-yl)methyl)-N-(4-methyl-3-(pyrimidin-2-ylamino)phenyl)benzamide] | 9%
18 | Cc1ccc(NC(=O)c2ccc(Cn3c(=O)[nH]n(C)c3=O)cc2)cc1Nc1ncccn1 [Example 21, 4-((1-methyl-3,5-dioxo-1,2,4-triazolidin-4-yl)methyl)-N-(4-methyl-3-(pyrimidin-2-ylamino)phenyl)benzamide] | 12%
19 | Cc1ccc(NC(=O)c2ccc(CNS(=O)(=O)NC(=O)N3CCCC3)cc2)cc1Nc1nccc(-c2ccccc2)n1 [Example 1] | 10%
20 | Cc1ccc(NC(=O)c2ccc(CN3CC(=O)NS3(=O)=O)cc2)cc1Nc1nccc(-c2cccnc2)n1 [Example 10] | 16%
21 | Cc1ccc(NC(=O)c2ccc(CN3CC(=O)N(C)C3=O)cc2)cc1Nc1nccc(-c2ccccc2)n1 [Example 6, N-(3-(4-phenylpyrimidin-2-ylamino)-4-methylphenyl)-4-((3-methyl-2,4-dioxoimidazolidin-1-yl)methyl)benzamide] | 13%

Source: patent US7279576B2 (Deciphera Pharmaceuticals, LLC, priority 2002, dated 2007)
